Data as given in US8580301B2, “Psychostimulant containing pharmaceutical composition” (PEJO Iserlohn Heilmittel und Diaet GmbH & Co. KG, priority 2004, dated 2013).
Where a name gives a salt, the structure may show the parent alone.

Columns and labels:
[1] = Stability in alkaline solution; type: physicochemical
[2] = Solubility of methylphenidate hydrochloride in aqueous media / Ph. Eur. buffer solutions; type: physicochemical

COC(=O)C(c1ccccc1)C1CCCCN1 (stereo not drawn) [methylphenidate hydrochloride]
stability in alkaline solution [1]: hydrolysis occurs | solubility of the maximum daily dose of 60 mg in buffer solutions of the European Pharmacopoeia ([2]; 60 mg in 250 ml hydrochloric acid pH 1.2, or 250 ml potassium dihydrogen phosphate buffer pH 4.6 or 6.8): dissolves easily | water solubility ([2]; aqueous media): extremely water soluble
